Laboratory results reported in patent US10092551B2, “Spiro-thiazolones” (Hoffmann-La Roche Inc., priority 2014, dated 2018).

Molecular target: human V1a receptor (Homo sapiens (Human), UniProt P37288)
Test: human V1a receptor binding studies (3H-Vasopressin, SPA beads)
Settings: membranes of HEK293 cells transiently transfected with human V1a receptor, Ki by Cheng-Prussoff
Procedure, shortened: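 Membranes from HEK293 cells transiently expressing cloned human V1a receptor, bound on yttrium silicate SPA beads with 4 nM 3H-vasopressin (added stock) and serially diluted compound, 1 h at room temperature. Non-specific binding defined with cold vasopressin; IC50 by non-linear regression, Ki via Cheng-Prusoff.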

human V1a receptor, sequence (P37288 whole entry): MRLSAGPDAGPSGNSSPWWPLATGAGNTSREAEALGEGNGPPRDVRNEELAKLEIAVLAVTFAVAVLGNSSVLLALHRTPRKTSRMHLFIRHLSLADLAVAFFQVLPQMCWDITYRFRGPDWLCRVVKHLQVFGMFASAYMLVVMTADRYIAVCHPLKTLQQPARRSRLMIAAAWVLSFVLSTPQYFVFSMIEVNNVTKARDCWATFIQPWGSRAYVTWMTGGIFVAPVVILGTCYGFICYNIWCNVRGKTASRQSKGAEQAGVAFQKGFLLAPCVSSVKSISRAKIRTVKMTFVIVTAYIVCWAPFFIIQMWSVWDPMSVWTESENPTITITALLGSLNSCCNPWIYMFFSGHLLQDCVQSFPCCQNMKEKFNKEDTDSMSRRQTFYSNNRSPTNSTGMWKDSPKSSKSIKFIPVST

Structure (SMILES)	pKi hV1a
C/C(=C1/SC(N2CCC3(CC2)OCc2ccccc23)=NC1=O)c1ccc(Cl)nc1 [Example 49, (5E/Z)-5-[1-(6-chloropyridin-3-yl)ethylidene]-2-(1′H,3H-spiro[2-benzofuran-1,4′-piperidin]-1′-yl)-1,3-thiazol-4(5H)-one]	9.1
O=C1N=C(N2CCC3(CC2)OC(=O)c2ccccc23)S/C1=C(/CO)c1ccccc1 [Example 143, 1′-[(5E)-5-(2-hydroxy-1-phenylethylidene)-4-oxo-4,5-dihydro-1,3-thiazol-2-yl]-3H-spiro[2-benzofuran-1,4′-piperidin]-3-one]	8.8
C=C/C(C)=C1\SC(N2CCC3(CC2)OCc2ccccc23)=NC1=O [Example 70, (5E/Z)-5-(but-3-en-2-ylidene)-2-(1′H,3H-spiro[2-benzofuran-1,4′-piperidin]-1′-yl)-1,3-thiazol-4(5H)-one]	7.6
C/C(=C1/SC(N2CCC3(CC2)OCc2ccccc23)=NC1=O)c1cccc(Cl)c1 [Example 12, (5E/Z)-5-[1-(3-chlorophenyl)ethylidene]-2-(1′H,3H-spiro[2-benzofuran-1,4′-piperidin]-1′-yl)-1,3-thiazol-4(5H)-one]	8.2
C/C(=C1/SC(N2CCC3(CC2)OCc2ncccc23)=NC1=O)c1cccnc1 [Example 165, (5E/Z)-5-[1-(pyridin-3-yl)ethylidene]-2-(1′H,7H-spiro[furo[3,4-b]pyridine-5,4′-piperidin]-1′-yl)-1,3-thiazol-4(5H)-one]	7.5
O=C1N=C(N2CCC3(CC2)OCc2ccccc23)S/C1=C(/c1ccc(Cl)cc1)C(F)(F)F [Example 17, (5Z)-5-[1-(4-chlorophenyl)-2,2,2-trifluoroethylidene]-2-(1′H,3H-spiro[2-benzofuran-1,4′-piperidin]-1′-yl)-1,3-thiazol-4(5H)-one]	8.5
C/C(CS(C)(=O)=O)=C1/SC(N2CCC3(CC2)OCc2ccccc23)=NC1=O [Example 121, (5E/Z)-5-[1-(methylsulfonyl)propan-2-ylidene]-2-(1′H,3H-spiro[2-benzofuran-1,4′-piperidin]-1′-yl)-1,3-thiazol-4(5H)-one]	7.0
C/C(CF)=C1/SC(N2CCC3(CC2)OCc2ccccc23)=NC1=O [Example 51, (5E/Z)-5-(1-fluoropropan-2-ylidene)-2-(1′H,3H-spiro[2-benzofuran-1,4′-piperidin]-1′-yl)-1,3-thiazol-4(5H)-one]	7.9
O=C1N=C(N2CCC3(CC2)OCc2ccccc23)S/C1=C\c1ccccn1 [Example 90, (5Z)-5-(pyridin-2-ylmethylidene)-2-(1′H,3H-spiro[2-benzofuran-1,4′-piperidin]-1′-yl)-1,3-thiazol-4(5H)-one]	7.3
C/C(=C1/SC(N2CCC3(CC2)OCc2ccccc23)=NC1=O)c1ccccc1F [Example 57, (5Z)-5-[1-(2-fluorophenyl)ethylidene]-2-(1′H,3H-spiro[2-benzofuran-1,4′-piperidin]-1′-yl)-1,3-thiazol-4(5H)-one]	9.0
C/C(=C1\SC(N2CCC3(CC2)OCc2ccccc23)=NC1=O)c1ccncc1 [Example 36, (5E)-5-[1-(pyridin-4-yl)ethylidene]-2-(1′H,3H-spiro[2-benzofuran-1,4′-piperidin]-1′-yl)-1,3-thiazol-4(5H)-one]	7.5
CC(C)C(=C1SC(N2CCC3(CC2)OCc2ccccc23)=NC1=O)C(C)C [Example 120, 5-(2,4-dimethylpentan-3-ylidene)-2-(1′H,3H-spiro[2-benzofuran-1,4′-piperidin]-1′-yl)-1,3-thiazol-4(5H)-one]	8.8
O=C1N=C(N2CCC3(CC2)OCc2ccccc23)S/C1=C\c1ccccc1 [Example 9, (5Z)-5-benzylidene-2-(1′H,3H-spiro[2-benzofuran-1,4′-piperidin]-1′-yl)-1,3-thiazol-4(5H)-one]	8.4
O=C1N=C(N2CCC3(CC2)OCc2ccccc23)S/C1=C1/CCCCc2ccc(Cl)cc21 [Example 89, (5E/Z)-5-(3-chloro-6,7,8,9-tetrahydro-5H-benzo[7]annulen-5-ylidene)-2-(1′H,3H-spiro[2-benzofuran-1,4′-piperidin]-1′-yl)-1,3-thiazol-4(5H)-one]	9.0
C/C(=C1\SC(N2CCC3(CC2)OC(=O)c2ccccc23)=NC1=O)c1ccc(C)nc1 [Example 136, 1′-{(5E)-5-[1-(6-methylpyridin-3-yl)ethylidene]-4-oxo-4,5-dihydro-1,3-thiazol-2-yl}-3H-spiro[2-benzofuran-1,4′-piperidin]-3-one]	7.5
C/C(=C1/SC(N2CCC3(CC2)OCc2ccccc23)=NC1=O)c1oc(C)nc1C [Example 86, (5E/Z)-5-[1-(2,4-dimethyl-1,3-oxazol-5-yl)ethylidene]-2-(1′H,3H-spiro[2-benzofuran-1,4′-piperidin]-1′-yl)-1,3-thiazol-4(5H)-one]	8.9
C/C(=C1/SC(N2CCC3(CC2)OCc2ccccc23)=NC1=O)c1cc(C)on1 [Example 79]	8.4

Structure (SMILES)	pKi hV1a
CC(C)CC(CC(C)C)=C1SC(N2CCC3(CC2)OCc2ccccc23)=NC1=O [Example 116, 5-(2,6-dimethylheptan-4-ylidene)-2-(1′H,3H-spiro[2-benzofuran-1,4′-piperidin]-1′-yl)-1,3-thiazol-4(5H)-one]	8.3
C/C(CNC(=O)OC(C)(C)C)=C1\SC(N2CCC3(CC2)OCc2ccccc23)=NC1=O [Example 65, tert-butyl {(2E)-2-[4-oxo-2-(1′H,3H-spiro[2-benzofuran-1,4′-piperidin]-1′-yl)-1,3-thiazol-5(4H)-ylidene]propyl}carbamate]	7.7
O=C1N=C(N2CCC3(CC2)OCc2ccccc23)S/C1=C(\c1ccc(Cl)cc1)C(F)(F)F [Example 18, (5E)-5-[1-(4-chlorophenyl)-2,2,2-trifluoroethylidene]-2-(1′H,3H-spiro[2-benzofuran-1,4′-piperidin]-1′-yl)-1,3-thiazol-4(5H)-one]	9.1
C/C(CO[Si](C)(C)C(C)(C)C)=C1/SC(N2CCC3(CC2)OCc2ccccc23)=NC1=O [Example 59, (5Z)-5-(1-{[tert-butyl(dimethyl)silyl]oxy}propan-2-ylidene)-2-(1′H,3H-spiro[2-benzofuran-1,4′-piperidin]-1′-yl)-1,3-thiazol-4(5H)-one]	6.5
O=C1N=C(N2CCC3(CC2)OC(=O)c2ccccc23)S/C1=C(\CO)c1ccccc1 [Example 142, 1′-[(5Z)-5-(2-hydroxy-1-phenylethylidene)-4-oxo-4,5-dihydro-1,3-thiazol-2-yl]-3H-spiro[2-benzofuran-1,4′-piperidin]-3-one]	8.4
CC(C)(C)[Si](C)(C)OC/C(=C1/SC(N2CCC3(CC2)OC(=O)c2ccccc23)=NC1=O)c1ccc(Cl)nc1 [Example 144, 1′-{(5E)-5-[2-{[tert-butyl(dimethyl)silyl]oxy}-1-(6-chloropyridin-3-yl)ethylidene]-4-oxo-4,5-dihydro-1,3-thiazol-2-yl}-3H-spiro[2-benzofuran-1,4′-piperidin]-3-one]	8.0
C/C(=C1/SC(N2CCC3(CC2)OCc2ccccc23)=NC1=O)C1CCCC1 [Example 43, (5E/Z)-5-(1-cyclopentylethylidene)-2-(1′H,3H-spiro[2-benzofuran-1,4′-piperidin]-1′-yl)-1,3-thiazol-4(5H)-one]	8.8
O=C1N=C(N2CCC3(CC2)OCc2ccccc23)SC1=C(C(F)(F)F)C(F)(F)F [Example 111, 5-(1,1,1,3,3,3-hexafluoropropan-2-ylidene)-2-(1′H,3H-spiro[2-benzofuran-1,4′-piperidin]-1′-yl)-1,3-thiazol-4(5H)-one]	7.5
C/C(CO[Si](C)(C)C(C)(C)C)=C1\SC(N2CCC3(CC2)OCc2ccccc23)=NC1=O [Example 58, (5E)-5-(1-{[tert-butyl(dimethyl)silyl]oxy}propan-2-ylidene)-2-(1′H,3H-spiro[2-benzofuran-1,4′-piperidin]-1′-yl)-1,3-thiazol-4(5H)-one]	7.2
C/C(=C1/SC(N2CCC3(CC2)OCc2ncccc23)=NC1=O)c1ccc(Cl)nc1 [Example 162, (5E/Z)-5-[1-(6-chloropyridin-3-yl)ethylidene]-2-(1′H,7H-spiro[furo[3,4-b]pyridine-5,4′-piperidin]-1′-yl)-1,3-thiazol-4(5H)-one]	7.9
O=C1N=C(N2CCC3(CC2)OCc2ccccc23)SC1=C1CCS(=O)(=O)CC1 [Example 60, 5-(1,1-dioxidotetrahydro-4H-thiopyran-4-ylidene)-2-(1′H,3H-spiro[2-benzofuran-1,4′-piperidin]-1′-yl)-1,3-thiazol-4(5H)-one]	8.0
C/C(=C1\SC(N2CCC3(CC2)OCc2ccccc23)=NC1=O)c1ccc(Cl)cc1 [Example 27, (5E)-5-[1-(4-chlorophenyl)ethylidene]-2-(1′H,3H-spiro[2-benzofuran-1,4′-piperidin]-1′-yl)-1,3-thiazol-4(5H)-one]	8.3
C/C(=C1/SC(N2CCC3(CC2)OCc2ccccc23)=NC1=O)c1cccnc1Cl [Example 83, (5Z)-5-[1-(2-chloropyridin-3-yl)ethylidene]-2-(1′H,3H-spiro[2-benzofuran-1,4′-piperidin]-1′-yl)-1,3-thiazol-4(5H)-one]	8.8
O=C1N=C(N2CCC3(CC2)OCc2ccccc23)SC1=C(c1ccccn1)c1ccccn1 [Example 110, 5-[di(pyridin-2-yl)methylidene]-2-(1′H,3H-spiro[2-benzofuran-1,4′-piperidin]-1′-yl)-1,3-thiazol-4(5H)-one]	7.6
O=C1N=C(N2CCC3(CC2)OCc2ccccc23)SC1=C1c2ccccc2Oc2ccccc21 [Example 103, 2-(1′H,3H-spiro[2-benzofuran-1,4′-piperidin]-1′-yl)-5-(9H-xanthen-9-ylidene)-1,3-thiazol-4(5H)-one]	8.6
C/C(=C1/SC(N2CCC3(CC2)OCc2ccccc23)=NC1=O)c1ccccc1 [Example 16, (5E/Z)-5-(1-phenylethylidene)-2-(1′H,3H-spiro[2-benzofuran-1,4′-piperidin]-1′-yl)-1,3-thiazol-4(5H)-one]	8.5
